Where “and” joins values, the source holds several entries; their conditions need not be identical. Equal values may be shown once.
Assays:
[1] = tested on: retinal vascular permeability in diabetic rats; assay: Diabetic retinopathy, streptozotocin rats; format: in vivo, rat; details: 25 or 75 mg/kg ip 5 days per week, Day 45 to Day 87
Method: Male Sprague-Dawley rats weighing 150-175 g were used. Diabetes was produced by intraperitoneal injection of streptozotocin (65 mg/kg in citrate buffer) after overnight fasting. Sham-injected non-diabetic animals were also carried as controls. Blood glucose was measured three days post-injection and animals with blood glucose over 250 mg/dL were used as diabetic rats for the study. Blood glucose levels and body weights were monitored weekly throughout the study. On Day 45, retinal vascular permeability was measured in a group of control and diabetic rats (Antonetti et al., 1998, Diabetes 47: 1953, Barber et al., 2005, Invest Ophthalmol Vis Sci 46: 2210). […] Sections were dewaxed and viewed with an Olympus OM-2 fluorescence microscope fitted with a Sony CLD video camera. Fluorescence intensities of digital images were measured using Leica Confocal Software (Version 2.61, build 1538, LCS Lite, 2004). The average retinal intensity for each eye was then normalized to non-injected controls analyzed in the same manner and to the plasma fluorescence of the animal. Through serial sectioning of the eye, this technique enables quantification of varied vascular permeability in the retina (Antonetti et al., 1998, Diabetes 47: 1953, Barber et al., 2005, Ibid.). […]

Hep-G2 (liver) = assay: Human tumor cell line panel, sulforhodamine B; format: cell-based; details: HepG2, 48 hours, mean ± sd
[2] = tested on: MCF-10A non-transformed human breast epithelial cells; assay: Cytotoxicity, SRB binding assay; format: cell-based; details: inhibition of cell proliferation, 48 h, read-out: MCF-10A IC50
How it was run: (§1)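 Cells exposed to varying compound doses for 48 h, then survival measured by sulforhodamine B staining. IC50 is the concentration giving 50% proliferation inhibition, in μM, as mean±sd of replicate trials.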

[3] = tested on: MCF-7 human breast adenocarcinoma cells; assay: Cytotoxicity, SRB binding assay; format: cell-based; details: MCF7, inhibition of cell proliferation, 48 h, read-out: MCF-7 IC50
How it was run: as §1

PKBα = PKBα (Homo sapiens, UniProt P31749); assay: Kinase selectivity panel; format: biochemical; details: read-out: percent of control activity, PKBα
PKBα, sequence (P31749 whole entry, species assumed, the tested form may be a part): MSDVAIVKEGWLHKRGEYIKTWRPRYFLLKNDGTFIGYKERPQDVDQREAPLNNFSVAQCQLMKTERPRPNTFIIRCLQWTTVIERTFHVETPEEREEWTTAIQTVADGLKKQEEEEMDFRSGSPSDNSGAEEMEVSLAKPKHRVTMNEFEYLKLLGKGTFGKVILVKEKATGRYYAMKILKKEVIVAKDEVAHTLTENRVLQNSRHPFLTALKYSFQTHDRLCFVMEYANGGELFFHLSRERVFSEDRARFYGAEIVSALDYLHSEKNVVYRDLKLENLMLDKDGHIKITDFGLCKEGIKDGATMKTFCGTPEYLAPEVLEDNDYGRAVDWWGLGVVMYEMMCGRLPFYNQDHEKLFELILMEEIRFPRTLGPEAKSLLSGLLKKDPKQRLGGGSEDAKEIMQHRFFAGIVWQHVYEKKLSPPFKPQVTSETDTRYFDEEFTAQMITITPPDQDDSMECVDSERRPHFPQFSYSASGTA
Method: (§2) A common problem with attempts to develop protein kinase inhibitors is the lack of selectivity toward the target kinase since the majority of these compounds interact with nucleotide-binding domains that are highly conserved among kinases. […] The compound was tested at a single concentration of 50 μM.

cRaf = cRaf (Homo sapiens, UniProt P04049); assay: Kinase selectivity panel; format: biochemical; details: read-out: percent of control activity, cRaf
cRaf, sequence (P04049 whole entry, species assumed): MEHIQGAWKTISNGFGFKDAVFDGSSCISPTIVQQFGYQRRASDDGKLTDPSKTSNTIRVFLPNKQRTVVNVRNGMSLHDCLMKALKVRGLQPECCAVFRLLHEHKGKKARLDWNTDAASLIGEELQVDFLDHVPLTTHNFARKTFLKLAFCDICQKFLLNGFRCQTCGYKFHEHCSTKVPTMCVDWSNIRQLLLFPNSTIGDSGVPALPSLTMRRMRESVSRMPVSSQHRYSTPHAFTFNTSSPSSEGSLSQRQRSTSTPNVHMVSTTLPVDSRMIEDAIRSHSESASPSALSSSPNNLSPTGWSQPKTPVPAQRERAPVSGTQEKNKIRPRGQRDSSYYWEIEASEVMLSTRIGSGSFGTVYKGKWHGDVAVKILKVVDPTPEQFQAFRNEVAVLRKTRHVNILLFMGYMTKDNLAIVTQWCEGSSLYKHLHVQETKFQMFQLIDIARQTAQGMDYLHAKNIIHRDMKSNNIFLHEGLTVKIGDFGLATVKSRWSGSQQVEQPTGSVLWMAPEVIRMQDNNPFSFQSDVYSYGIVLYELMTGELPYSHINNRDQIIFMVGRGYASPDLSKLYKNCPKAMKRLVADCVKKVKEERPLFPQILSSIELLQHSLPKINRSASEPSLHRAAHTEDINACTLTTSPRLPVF
Method: as §2

P38 MAP kinase 2 = P38 MAP kinase 2 (Homo sapiens, UniProt Q15759); assay: Kinase selectivity panel; format: biochemical; details: read-out: percent of control activity, P38 MAP kinase 2
P38 MAP kinase 2, sequence (Q15759 whole entry): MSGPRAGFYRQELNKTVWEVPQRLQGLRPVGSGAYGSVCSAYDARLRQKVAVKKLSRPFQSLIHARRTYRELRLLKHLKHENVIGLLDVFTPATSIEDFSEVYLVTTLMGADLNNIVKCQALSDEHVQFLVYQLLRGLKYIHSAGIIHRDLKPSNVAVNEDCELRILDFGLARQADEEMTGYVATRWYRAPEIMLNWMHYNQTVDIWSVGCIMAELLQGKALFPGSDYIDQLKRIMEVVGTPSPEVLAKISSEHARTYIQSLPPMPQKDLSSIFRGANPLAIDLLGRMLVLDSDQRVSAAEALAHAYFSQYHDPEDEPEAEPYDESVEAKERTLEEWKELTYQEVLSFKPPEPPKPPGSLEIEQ
Method: as §2

Fyn = Fyn (Homo sapiens, UniProt P06241); assay: Kinase selectivity panel; format: biochemical; details: read-out: percent of control activity, Fyn
Fyn, sequence (P06241 whole entry, species assumed): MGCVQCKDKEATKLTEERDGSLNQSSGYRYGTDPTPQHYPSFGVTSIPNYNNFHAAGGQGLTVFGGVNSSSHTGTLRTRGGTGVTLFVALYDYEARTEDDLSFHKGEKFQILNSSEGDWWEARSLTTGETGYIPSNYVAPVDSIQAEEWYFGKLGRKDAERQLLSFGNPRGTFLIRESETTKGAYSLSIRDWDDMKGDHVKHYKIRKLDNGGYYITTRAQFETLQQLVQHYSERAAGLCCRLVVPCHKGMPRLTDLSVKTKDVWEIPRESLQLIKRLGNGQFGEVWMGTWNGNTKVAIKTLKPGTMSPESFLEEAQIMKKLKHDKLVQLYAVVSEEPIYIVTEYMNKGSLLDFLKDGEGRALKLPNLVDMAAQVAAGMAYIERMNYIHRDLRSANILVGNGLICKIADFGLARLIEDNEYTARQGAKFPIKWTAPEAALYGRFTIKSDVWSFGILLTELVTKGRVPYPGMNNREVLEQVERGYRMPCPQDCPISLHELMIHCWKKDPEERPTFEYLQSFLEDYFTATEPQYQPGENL
Method: as §2

P38 MAP kinase 1 = P38 MAP kinase 1 (Homo sapiens, UniProt Q16539); assay: Kinase selectivity panel; format: biochemical; details: read-out: percent of control activity, P38 MAP kinase 1
P38 MAP kinase 1, sequence (Q16539 whole entry): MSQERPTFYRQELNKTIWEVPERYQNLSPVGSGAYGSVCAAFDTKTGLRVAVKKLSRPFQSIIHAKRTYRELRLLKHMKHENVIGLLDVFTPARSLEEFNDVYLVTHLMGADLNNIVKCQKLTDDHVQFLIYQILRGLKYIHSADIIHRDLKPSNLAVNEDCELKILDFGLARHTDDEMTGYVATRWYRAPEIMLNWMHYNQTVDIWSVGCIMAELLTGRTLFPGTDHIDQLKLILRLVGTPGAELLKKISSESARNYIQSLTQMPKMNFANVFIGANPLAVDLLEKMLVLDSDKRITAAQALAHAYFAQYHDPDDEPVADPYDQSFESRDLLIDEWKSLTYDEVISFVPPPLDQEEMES
Method: as §2

cSrc = cSrc (Homo sapiens, UniProt P12931); assay: Kinase selectivity panel; format: biochemical; details: read-out: percent of control activity, cSrc
cSrc, sequence (P12931 whole entry, species assumed): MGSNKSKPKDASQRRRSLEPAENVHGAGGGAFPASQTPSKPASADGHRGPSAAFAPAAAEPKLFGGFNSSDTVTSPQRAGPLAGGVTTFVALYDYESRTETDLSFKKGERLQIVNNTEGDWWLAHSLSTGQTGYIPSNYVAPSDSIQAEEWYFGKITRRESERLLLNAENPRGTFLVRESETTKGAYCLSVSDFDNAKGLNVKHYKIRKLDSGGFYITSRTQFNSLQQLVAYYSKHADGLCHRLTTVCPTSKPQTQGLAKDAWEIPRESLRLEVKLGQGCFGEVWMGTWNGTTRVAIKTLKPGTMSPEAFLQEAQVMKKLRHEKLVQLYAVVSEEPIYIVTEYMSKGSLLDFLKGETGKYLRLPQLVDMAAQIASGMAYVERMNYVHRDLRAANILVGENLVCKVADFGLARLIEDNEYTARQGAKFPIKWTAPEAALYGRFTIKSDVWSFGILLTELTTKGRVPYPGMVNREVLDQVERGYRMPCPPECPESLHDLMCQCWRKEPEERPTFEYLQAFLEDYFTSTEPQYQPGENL
Method: as §2

Aurora-A = Aurora-A (Homo sapiens, UniProt O14965); assay: Kinase selectivity panel; format: biochemical; details: read-out: percent of control activity, Aurora-A
Aurora-A, sequence (O14965 whole entry): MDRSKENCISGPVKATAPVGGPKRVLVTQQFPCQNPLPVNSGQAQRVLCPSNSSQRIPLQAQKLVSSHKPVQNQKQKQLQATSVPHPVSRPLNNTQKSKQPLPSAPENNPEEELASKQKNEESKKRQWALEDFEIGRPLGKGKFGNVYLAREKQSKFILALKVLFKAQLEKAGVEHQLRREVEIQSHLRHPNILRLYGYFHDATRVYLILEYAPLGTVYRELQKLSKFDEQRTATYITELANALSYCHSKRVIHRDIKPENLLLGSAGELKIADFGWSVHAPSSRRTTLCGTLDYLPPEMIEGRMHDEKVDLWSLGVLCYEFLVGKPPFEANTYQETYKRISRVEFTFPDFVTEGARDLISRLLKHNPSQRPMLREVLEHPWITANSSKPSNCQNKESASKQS
Method: as §2

IKKα = IKKα (Homo sapiens, UniProt O15111); assay: Kinase selectivity panel; format: biochemical; details: read-out: percent of control activity, IKKα
IKKα, sequence (O15111 whole entry, species assumed): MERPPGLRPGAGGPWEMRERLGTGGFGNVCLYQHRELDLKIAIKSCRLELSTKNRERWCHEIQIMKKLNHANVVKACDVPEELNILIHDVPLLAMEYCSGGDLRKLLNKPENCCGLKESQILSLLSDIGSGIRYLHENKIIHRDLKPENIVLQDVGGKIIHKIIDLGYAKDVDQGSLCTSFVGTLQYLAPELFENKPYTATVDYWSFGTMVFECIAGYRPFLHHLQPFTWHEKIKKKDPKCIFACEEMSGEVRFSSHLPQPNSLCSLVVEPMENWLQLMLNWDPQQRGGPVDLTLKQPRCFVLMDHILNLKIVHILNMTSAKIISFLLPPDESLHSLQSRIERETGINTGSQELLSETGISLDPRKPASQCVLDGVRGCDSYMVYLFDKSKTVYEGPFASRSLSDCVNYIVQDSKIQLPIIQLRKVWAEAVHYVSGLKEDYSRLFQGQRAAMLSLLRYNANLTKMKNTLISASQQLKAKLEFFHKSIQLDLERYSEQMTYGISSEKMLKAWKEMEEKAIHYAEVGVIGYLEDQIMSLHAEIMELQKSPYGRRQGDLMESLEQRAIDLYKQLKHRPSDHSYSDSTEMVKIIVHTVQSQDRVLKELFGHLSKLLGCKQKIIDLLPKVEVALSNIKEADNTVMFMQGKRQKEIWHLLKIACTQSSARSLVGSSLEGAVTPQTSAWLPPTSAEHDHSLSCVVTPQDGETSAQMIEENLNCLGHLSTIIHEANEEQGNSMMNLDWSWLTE
Method: as §2

CDK2/cyclinE = CDK2/cyclinE (Homo sapiens, UniProt P24941); assay: Kinase selectivity panel; format: biochemical; details: read-out: percent of control activity, CDK2/cyclinE
Method: as §2

physchem = details: aqueous with cosolvent or surfactant or cyclodextrin
T24 (bladder) = assay: Human tumor cell line panel, sulforhodamine B; format: cell-based; details: 48 hours, mean ± sd
Panc-1 (pancreas) = assay: Human tumor cell line panel, sulforhodamine B; format: cell-based; details: 48 hours, mean ± sd
HT-29 (colon) = assay: Human tumor cell line panel, sulforhodamine B; format: cell-based; details: 48 hours, mean ± sd
VCAM-1 = assay: TNFα-induced adhesion molecule expression, Western analysis; format: cell-based; details: human endothelial cells, TNFα 100 ng/mL 6 hours, 25 μM compound
Method: (§3) Like endothelial cells in the body, HUVECs will proliferate in response to several growth factors, and will respond to inflammatory cytokines such as TNFα and IL-1β. Western analyses were conducted with human endothelial cells to evaluate the effects of the SK inhibitors on signaling proteins known to be regulated by TNFα. In these experiments, the cells were serum-starved for 24 hours and then exposed to TNFα (100 ng/mL) for 6 hours. Cell lysates from treated cells were assayed for the adhesion molecules ICAM-1 and VCAM-1. TNFα caused marked increases in the expression levels of adhesion proteins involved in leukocyte recruitment, including ICAM-1 and VCAM-1.

ICAM-1 = assay: as above; format: cell-based; details: human endothelial cells, TNFα 100 ng/mL 6 hours, 25 μM compound
Method: as §3

## O=C(NCc1ccncc1)C12CC3CC(C1)CC(c1ccc(Cl)cc1)(C3)C2 [Compound 62, 3-(4-Chloro-phenyl)-adamantane-1-carboxylic acid (pyridin-4-ylmethyl)-amide]
[1]
  FITC-BSA leakage into the retina vs untreated diabetic rats: substantially reduced
Hep-G2 (liver)
  IC50: 6 ± 2.6 µM
[2]
  IC50: 21 µM
[3]
  IC50: 17 µM
PKBα
  remaining activity at 50 µM: 95 ± 2%
cRaf
  remaining activity at 50 µM: 96 ± 5%
P38 MAP kinase 2
  remaining activity at 50 µM: 109 ± 5%
Fyn
  remaining activity at 50 µM: 84 ± 5%
P38 MAP kinase 1
  remaining activity at 50 µM: 94 ± 2%
cSrc
  remaining activity at 50 µM: 115 ± 3%
Aurora-A
  remaining activity at 50 µM: 103 ± 1%
IKKα
  remaining activity at 50 µM: 150 ± 16%
CDK2/cyclinE
  remaining activity at 50 µM: 106 ± 6%
physchem
  solubility: ≥ 15000 µg/mL and 30000 µM to 40000 µM
T24 (bladder)
  IC50: 39.4 ± 7.4 µM
Panc-1 (pancreas)
  IC50: 32.8 ± 0.1 µM
HT-29 (colon)
  IC50: 48.1 ± 7.6 µM
VCAM-1
  TNFα induction of VCAM-1: completely abrogated
ICAM-1
  TNFα induction of ICAM-1: completely abrogated

Reference: US8557800B2, “Sphingosine kinase inhibitors” (Apogee Biotechnology Corporation, priority 2005, dated 2013)
